Experimental data as given in ChEMBL document CHEMBL1137527, “Synthesis and biological evaluation of norcantharidin analogues: towards PP1 selectivity” (Bioorg Med Chem, 2007).

Columns and labels:
[1] = Inhibition of PP2A in human red blood cells; type: cell-based
[2] = Inhibition of PP1 in rabbit skeletal muscle; type: tissue-based, Oryctolagus cuniculus, Muscle tissue
[3] = Selectivity ratio of IC50 for rabbit skeletal muscle PP1 over IC50 for human PP2A; type: tissue-based; details: Muscle tissue
[4] = Selectivity ratio of IC50 for rabbit skeletal muscle PP1 over IC50 for bovine brain PP2B; type: tissue-based; details: Muscle tissue
[5] = (§1) Inhibition of bovine brain PP2B; set-up: species or system Bos taurus
Bos taurus = species on record: Bos taurus; assay: as §1

What does the source list for O=C(NCCN1CCOCC1)C1C(C(=O)O)[C@H]2CC[C@@H]1O2 (stereo partly specified)?
IC50 [1]: 43 µM; IC50 [2]: 30 µM; Ratio IC50 [3]: 0.7

Which IC50 [1] does the source give for CCCCCCOc1ccc(NC(=O)C2C(C(=O)O)[C@H]3CC[C@@H]2O3)cc1 (stereo partly specified) here?
The IC50 was 15 µM.

And the IC50 [2]?
Its IC50 is 11 µM.

What about the Ratio IC50 [3] of the same molecule?
Its Ratio IC50 is 0.73.

Which results are given for O=C(NCCCCc1ccccc1)C1C(C(=O)O)[C@H]2CC[C@@H]1O2 (stereo partly specified)?
IC50 [1]: 95 µM; IC50 [2]: 75 µM; Ratio IC50 [3]: 0.79

Which IC50 [1] does the source give for O=C(Nc1ccc2ccccc2c1)C1C(C(=O)O)[C@H]2CC[C@@H]1O2 (stereo partly specified) here?
The IC50 was 15 µM.

And the IC50 [2]?
Its IC50 is 14 µM.

What about the Ratio IC50 [3] of the same molecule?
The Ratio IC50 was 0.93.

For O=C(Nc1ccccc1)C1C(C(=O)O)[C@H]2CC[C@@H]1O2 (stereo partly specified), which IC50 [1] is on record?
Its IC50 is 7.7 µM.

What about the IC50 [2] of the same molecule?
Its IC50 is 24.3 µM.

And the Ratio IC50 [3]?
The Ratio IC50 was 3.2.

What does the source list for CCc1ccccc1NC(=O)C1C(C(=O)O)[C@H]2CC[C@@H]1O2 (stereo partly specified)?
IC50 [1]: 24 µM; IC50 [2]: 51 µM; Ratio IC50 [3]: 2.12

With CSc1ccccc1NC(=O)C1C(C(=O)O)[C@H]2CC[C@@H]1O2 (stereo partly specified) as the molecule, how does the IC50 [1] read?
The IC50 was 33 µM.

And the IC50 [2]?
Its IC50 is 23 µM.

And the Ratio IC50 [3]?
Its Ratio IC50 is 0.7.

For O=C1OC(=O)C2C3CCC(O3)C12 (stereo unspecified) [DEMETHYL-CANTHARIDIN], which IC50 [1] is on record?
The IC50 was 2.69 µM.

And the IC50 [2]?
The IC50 was 10.3 µM.

What about the Ratio IC50 [4] of the same molecule?
Its Ratio IC50 is 0.33.

What about the IC50 [5] of the same molecule?
Its IC50 is 31 µM.

What about the Ratio IC50 [3] of the same molecule?
Its Ratio IC50 is 3.8.

Which results are given for CC(C)(C)c1ccc(NC(=O)C2C(C(=O)O)[C@H]3CC[C@@H]2O3)cc1 (stereo partly specified)?
IC50 [1]: 11 µM; IC50 [2]: 10 µM; Ratio IC50 [3]: 0.91

Which IC50 [1] does the source give for O=C(NCc1ccc(C(F)(F)F)cc1)C1C(C(=O)O)[C@H]2CC[C@@H]1O2 (stereo partly specified) here?
Its IC50 is 20 µM.

And the IC50 [2]?
The IC50 was 16 µM.

And the Ratio IC50 [3]?
The Ratio IC50 was 0.8.

For CSc1ccc(NC(=O)C2C(C(=O)O)[C@H]3CC[C@@H]2O3)cc1 (stereo partly specified), which IC50 [1] is on record?
Its IC50 is 14 µM.

What about the IC50 [2] of the same molecule?
Its IC50 is 10 µM.

What about the Ratio IC50 [3] of the same molecule?
The Ratio IC50 was 0.71.

Which IC50 [1] does the source give for O=C(NCc1ccc(F)c(F)c1)C1C(C(=O)O)[C@H]2CC[C@@H]1O2 (stereo partly specified) here?
The IC50 was 26 µM.

And the IC50 [2]?
The IC50 was 26 µM.

And the Ratio IC50 [3]?
Its Ratio IC50 is 1.

What does the source list for CN(C)CCCNC(=O)C1C(C(=O)O)[C@H]2CC[C@@H]1O2 (stereo partly specified)?
IC50 [1]: 57 µM; IC50 [2]: 43 µM; Ratio IC50 [3]: 0.75

Which IC50 [1] does the source give for COc1ccc(NC(=O)C2C(C(=O)O)[C@H]3CC[C@@H]2O3)cc1 (stereo partly specified) here?
Its IC50 is 16 µM.

What about the IC50 [2] of the same molecule?
Its IC50 is 15 µM.

What about the Ratio IC50 [3] of the same molecule?
The Ratio IC50 was 0.94.

What does the source list for Cc1cc(C)c(NC(=O)C2C(C(=O)O)[C@H]3CC[C@@H]2O3)c(C)c1 (stereo partly specified)?
IC50 [1]: 85 µM; IC50 [2]: 48 µM; Ratio IC50 [4]: 0.54; IC50 [5]: 89 µM; Ratio IC50 [3]: 0.56

Which IC50 [1] does the source give for CC(C)(C)c1ccc(NC(=O)C2C(C(=O)O)[C@H]3CC[C@@H]2O3)c(C(C)(C)C)c1 (stereo partly specified) here?
The IC50 was 8.2 µM.

What about the IC50 [2] of the same molecule?
Its IC50 is 8.2 µM.

And the Ratio IC50 [3]?
The Ratio IC50 was 1.

For C[C@@]12C(=O)OC(=O)[C@]1(C)[C@H]1CC[C@@H]2O1 [CANTHARIDIN], which IC50 [1] is on record?
The IC50 was 0.99 µM.

And the IC50 [2]?
Its IC50 is 7.6 µM.

And the Ratio IC50 [4]?
Its Ratio IC50 is over 0.07.

What about the IC50 (Bos taurus) of the same molecule?
The IC50 was over 100 µM.

And the Ratio IC50 [3]?
The Ratio IC50 was 7.7.

With C#Cc1cccc(NC(=O)C2C(C(=O)O)[C@H]3CC[C@@H]2O3)c1 (stereo partly specified) as the molecule, how does the IC50 [1] read?
Its IC50 is 18 µM.

And the IC50 [2]?
The IC50 was 17 µM.

And the Ratio IC50 [3]?
The Ratio IC50 was 0.94.

Which IC50 [1] does the source give for O=C(Nc1ccc(N2CCOCC2)cc1)C1C(C(=O)O)[C@H]2CC[C@@H]1O2 (stereo partly specified) here?
The IC50 was 7.9 µM.

What about the IC50 [2] of the same molecule?
Its IC50 is 6.5 µM.

What about the Ratio IC50 [4] of the same molecule?
The Ratio IC50 was 0.15.

And the IC50 [5]?
The IC50 was 42 µM.

And the Ratio IC50 [3]?
Its Ratio IC50 is 0.82.

Which results are given for Cc1cccc(C)c1NC(=O)C1C(C(=O)O)[C@H]2CC[C@@H]1O2 (stereo partly specified)?
IC50 [1]: 72 µM; IC50 [2]: 56 µM; Ratio IC50 [3]: 0.78

Which IC50 [1] does the source give for O=C(Nc1cccc(CO)c1)C1C(C(=O)O)[C@H]2CC[C@@H]1O2 (stereo partly specified) here?
The IC50 was 7 µM.

What about the IC50 [2] of the same molecule?
The IC50 was 15 µM.

What about the Ratio IC50 [3] of the same molecule?
The Ratio IC50 was 2.14.

With O=C(NCc1ccccc1)C1C(C(=O)O)[C@H]2CC[C@@H]1O2 (stereo partly specified) as the molecule, how does the IC50 [1] read?
The IC50 was 12 µM.

What about the IC50 [2] of the same molecule?
The IC50 was 35 µM.

And the Ratio IC50 [3]?
The Ratio IC50 was 2.9.

Which results are given for CN(C)CCNC(=O)C1C(C(=O)O)[C@H]2CC[C@@H]1O2 (stereo partly specified)?
IC50 [1]: > 100 µM; IC50 [2]: 67 µM; Ratio IC50 [3]: < 0.67

For O=C(NCCCc1ccccc1)C1C(C(=O)O)[C@H]2CC[C@@H]1O2 (stereo partly specified), which IC50 [1] is on record?
The IC50 was 25 µM.

And the IC50 [2]?
The IC50 was 25 µM.

What about the Ratio IC50 [3] of the same molecule?
Its Ratio IC50 is 1.

With Cc1cccc(NC(=O)C2C(C(=O)O)[C@H]3CC[C@@H]2O3)c1C (stereo partly specified) as the molecule, how does the IC50 [1] read?
Its IC50 is 18 µM.

And the IC50 [2]?
Its IC50 is 17 µM.

And the Ratio IC50 [3]?
Its Ratio IC50 is 0.94.

Which IC50 [1] does the source give for O=C(Nc1ccccc1CO)C1C(C(=O)O)[C@H]2CC[C@@H]1O2 (stereo partly specified) here?
Its IC50 is 39 µM.

And the IC50 [2]?
Its IC50 is 36 µM.

What about the Ratio IC50 [3] of the same molecule?
The Ratio IC50 was 0.92.
